Experimental data published in the supplement of paper PMC10307832.

How the values were obtained:
Assay in all cases: relative viability (nuclei count vs DMSO), 5 days (fraction); higher = more cells survive
QS11 + Palbociclib = compound: C1CC2=C(C1)C=C(C=C2)OC3=NC(=C4C(=N3)N(C=N4)CC5=CC=C(C=C5)C6=CC=CC=C6)N[C@@H](CC7=CC=CC=C7)CO [QS11] + CC(=O)c1c(C)c2cnc(Nc3ccc(N4CCNCC4)cn3)nc2n(C2CCCC2)c1=O [Palbociclib] (partner 0.5 µM)
In short: (§1)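 Lung cancer cell lines in 1536-well plates were dosed by pin tool the day after seeding, either with one drug alone or with a fixed anchor-drug dose plus five library-drug doses (not always all listed) in √10 steps. After 5 days, cells were fixed and their nuclei stained in one step (final 0.05% Triton X-100, 1% formaldehyde, 1 ug/ml Hoechst), then counted on 4× images. Relative viability is the nuclei count in treated wells divided by that in vehicle wells. Values are medians of duplicate plates.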

QS11 + Pictilisib = compound: C1CC2=C(C1)C=C(C=C2)OC3=NC(=C4C(=N3)N(C=N4)CC5=CC=C(C=C5)C6=CC=CC=C6)N[C@@H](CC7=CC=CC=C7)CO [QS11] + CS(=O)(=O)N1CCN(Cc2cc3nc(-c4cccc5[nH]ncc45)nc(N4CCOCC4)c3s2)CC1 [Pictilisib] (partner 1 µM)
In short: as §1

[1] = compound: C[As](C)SC[C@H](NC(=O)CC[C@H](N)C(=O)O)C(=O)NCC(=O)O [Darinaparsin] + CC1(C)CCC(c2ccc(Cl)cc2)=C(CN2CCN(c3ccc(C(=O)NS(=O)(=O)c4ccc(N[C@H](CCN5CCOCC5)CSc5ccccc5)c(S(=O)(=O)C(F)(F)F)c4)cc3)CC2)C1 [Navitoclax] (partner 0.5 µM)
In short: as §1

[2] = compound: C[As](C)SC[C@H](NC(=O)CC[C@H](N)C(=O)O)C(=O)NCC(=O)O [Darinaparsin] + C[C@]1(O)C[C@@H](c2nc(-c3ccc4ccc(-c5ccccc5)nc4c3)c3c(N)nccn32)C1 [Linsitinib] (partner 1 µM)
In short: as §1

Row | Cell Line | relative viability (QS11 + Palbociclib; first compound 0.08 µM) | relative viability (QS11 + Palbociclib; first compound 0.253 µM) | relative viability (QS11 + Palbociclib; first compound 0.8 µM) | relative viability (QS11 + Palbociclib; first compound 2.53 µM) | relative viability (QS11 + Palbociclib; first compound 8 µM) | relative viability (QS11 + Pictilisib; first compound 0.08 µM) | relative viability (QS11 + Pictilisib; first compound 0.253 µM) | relative viability (QS11 + Pictilisib; first compound 0.8 µM) | relative viability (QS11 + Pictilisib; first compound 2.53 µM) | relative viability (QS11 + Pictilisib; first compound 8 µM) | relative viability ([1]; first compound 0.08 µM) | relative viability ([1]; first compound 0.8 µM) | relative viability ([1]; first compound 2.53 µM) | relative viability ([1]; first compound 8 µM) | relative viability ([2]; first compound 0.08 µM) | relative viability ([2]; first compound 0.8 µM) | relative viability ([2]; first compound 2.53 µM) | relative viability ([2]; first compound 8 µM)
1 | CAL-12T | 0.431 | 0.568 | 0.409 | 0.499 | 0.264 | 0.446 | 0.412 | 0.665 | 0.314 | 0.38 | 1.48 | 1.11 | 1.27 | 1.37 | 1.08 | 0.757 | 0.686 | 0.956
2 | COR-L23 | 0.319 | 0.298 | 0.274 | 0.196 | 0.181 | 0.807 | 0.717 | 0.806 | 0.662 | 0.681 | 1.38 | 1.12 | 0.945 | 1.16 | 1.24 | 0.886 | 0.859 | 1.02
3 | COR-L 105 | 0.423 | 0.437 | 0.417 | 0.352 | 0.442 | 0.346 | 0.359 | 0.34 | 0.372 | 0.347 | 0.883 | 0.709 |  | 0.82 | 0.992 | 0.844 |  | 0.978
4 | EKVX | 0.401 | 0.375 | 0.33 | 0.284 | 0.391 | 0.444 | 0.379 |  | 0.413 | 0.467 | 1.14 | 0.825 | 0.918 | 1.15 | 1.33 | 0.902 | 0.969 | 1.2
5 | EMC-BAC-2 | 0.515 | 0.545 | 0.43 | 0.443 | 0.406 | 0.535 | 0.486 | 0.569 | 0.604 | 0.442 | 1.24 | 1.14 | 1 | 1.72 | 0.862 | 0.758 | 0.773 | 0.965
6 | EPLC-272H |  | 0.315 | 0.31 | 0.305 | 0.31 | 0.372 | 0.347 | 0.298 | 0.387 | 0.274 | 1.26 | 1.37 | 1.07 | 0.983 | 1.2 | 1.31 | 0.956 | 1.17
7 | H3255 | 0.327 | 0.363 | 0.301 | 0.31 | 0.298 | 0.37 | 0.523 |  | 0.541 | 0.537 | 0.542 | 0.513 | 0.458 | 0.674 | 0.995 | 0.96 | 0.86 | 1.16
8 | HARA | 0.256 | 0.212 | 0.186 | 0.252 | 0.259 | 0.358 | 0.46 |  | 0.383 | 0.36 | 1.39 | 1.07 | 1.08 | 1.37 | 1.38 | 0.852 | 0.75 | 1.19
